{"source": "patent US10017741B2", "about": "“Compositions and methods for obtaining enriched mesenchymal stem cell cultures” (StemCell Technologies Inc., priority 2013, dated 2018)", "tested_on": "mouse BM-derived cells (MSC colonies)", "assay": "Mouse BM-derived CFU-F assay", "type": "cell-based", "conditions": "14 days", "description": "a. Mouse BM and CB-Derived CFU-F Assay • 1. […] Medium was removed cultures washed with 2 mL PBS. • 4. Cells were fixed by adding 2 mL methanol/well and incubated at room temperature for 5 minutes. • 5. Methanol was removed and plates allowed to air dry for 5 minutes. • 6. To each well, 2 mL Toluidine blue solution was added and incubated for 30 minutes at room temperature. • 7. Toluidine blue solution was removed and wells rinsed with water. • 8. Water was removed and plates allowed to dry. • 9. Colony formation was assessed by enumeration and colony size. Mouse BM-derived cells were isolated as described previously and CFU-F assays setup as described above. […] Cultures were then stained with Toluidine blue and colony formation and appearance assessed. Three independent assays CFU-F assays for both BM- and CB-MSC were setup as in Example 4a and 4b. […] These assays were maintained for 14 days without media change. At the end of day 14, cultures were fixed and stained with toluidine blue and the number of MSC colonies counted.", "key": {"[1]": {"conditions": "BM-MSC, assay 1, 1 uM GW2580, 1.0 × 10^6 cells plated"}, "[2]": {"conditions": "BM-MSC, assay 1, 1 uM GW2580, 2.5 × 10^5 cells plated"}, "[3]": {"conditions": "BM-MSC, assay 1, 1 uM GW2580, 5.0 × 10^5 cells plated"}, "[4]": {"conditions": "BM-MSC, assay 1, 1 uM GW2580, Sum of the three densities"}, "[5]": {"conditions": "BM-MSC, assay 2, 2.5 uM GW2580, 1.0 × 10^6 cells plated"}, "[6]": {"conditions": "BM-MSC, assay 2, 2.5 uM GW2580, 2.5 × 10^5 cells plated"}, "[7]": {"conditions": "BM-MSC, assay 2, 2.5 uM GW2580, 5.0 × 10^5 cells plated"}, "[8]": {"conditions": "BM-MSC, assay 2, 2.5 uM GW2580, Sum of the three densities"}, "[9]": {"conditions": "BM-MSC, assay 3, 2.5 uM GW2580, 1.0 × 10^6 cells plated"}, "[10]": {"conditions": "BM-MSC, assay 3, 2.5 uM GW2580, 2.5 × 10^5 cells plated"}, "[11]": {"conditions": "BM-MSC, assay 3, 2.5 uM GW2580, 5.0 × 10^5 cells plated"}, "[12]": {"conditions": "BM-MSC, assay 3, 2.5 uM GW2580, Sum of the three densities"}}, "note": "Entries after “also recorded” stand apart in the source; their conditions may differ."}
{"smiles": "COc1ccc(COc2ccc(Cc3cnc(N)nc3N)cc2OC)cc1", "note": "[GW2580, 5-(3-Methoxy-4-((4-methoxybenzyl)oxy)benzyl)pyrimidine-2,4-diamine]", "values": [{"measurement": "overall minimal increase in number of MSC colonies vs control", "setting": "BM-MSC, 1 or 2.5 uM, three assays", "value": "≥ 20", "unit": "%"}, {"measurement": "% increase in number of MSC colonies vs control", "setting": "[1]", "value": 26, "unit": "%"}, {"measurement": "Number of MSC colonies", "setting": "[1]", "value": 227}, {"measurement": "% increase in number of MSC colonies vs control", "setting": "[2]", "value": 26, "unit": "%"}, {"measurement": "Number of MSC colonies", "setting": "[2]", "value": 103}, {"measurement": "% increase in number of MSC colonies vs control", "setting": "[3]", "value": 44, "unit": "%"}, {"measurement": "Number of MSC colonies", "setting": "[3]", "value": 201}, {"measurement": "% increase in number of MSC colonies vs control", "setting": "[4]", "value": 32, "unit": "%"}, {"measurement": "Number of MSC colonies", "setting": "[4]", "value": 531}, {"measurement": "% increase in number of MSC colonies vs control", "setting": "[5]", "value": 21, "unit": "%"}, {"measurement": "Number of MSC colonies", "setting": "[5]", "value": 34}, {"measurement": "% increase in number of MSC colonies vs control", "setting": "[6]", "value": 0, "unit": "%"}, {"measurement": "Number of MSC colonies", "setting": "[6]", "value": 3}, {"measurement": "% increase in number of MSC colonies vs control", "setting": "[7]", "value": 109, "unit": "%"}, {"measurement": "Number of MSC colonies", "setting": "[7]", "value": 23}, {"measurement": "% increase in number of MSC colonies vs control", "setting": "[8]", "value": 40, "unit": "%"}, {"measurement": "Number of MSC colonies", "setting": "[8]", "value": 60}, {"measurement": "% increase in number of MSC colonies vs control", "setting": "[9]", "value": 50, "unit": "%"}, {"measurement": "Number of MSC colonies", "setting": "[9]", "value": 60}, {"measurement": "% increase in number of MSC colonies vs control", "setting": "[10]", "value": 67, "unit": "%"}, {"measurement": "Number of MSC colonies", "setting": "[10]", "value": 5}, {"measurement": "% increase in number of MSC colonies vs control", "setting": "[11]", "value": 70, "unit": "%"}, {"measurement": "Number of MSC colonies", "setting": "[11]", "value": 17}, {"measurement": "% increase in number of MSC colonies vs control", "setting": "[12]", "value": 55, "unit": "%"}, {"measurement": "Number of MSC colonies", "setting": "[12]", "value": 82}, {"measurement": "increase in colony number compared to control cultures", "setting": "BM-derived, 1 μM", "value": "at least 20%"}, {"measurement": "MSC CFU-F appearance (colony size, macrophages)", "setting": "BM-derived, 1 μM, Toluidine blue", "value": "bigger in size and have a much reduced number of macrophages; also recorded: larger, enriched MSC CFU-F that are mostly free of macrophages"}]}
